molecular target: T1, human PAD4 (Homo sapiens, UniProt Q9UM07); experiment: In vitro PAD4 BAEE biochemical assay; conditions: BAEE substrate 3 mM, 5 nM PAD4, 2 mM calcium chloride; geometric mean of multiple experiments
T1 construct: human PAD4 (NM_012387), A2-P663, was PCR amplified; His-SUMO (N, cleaved yes); made in house; host or cells: E. coli BL21(DE3)
Method in brief: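 Recombinant human PAD4 (5 nM final) with 2 mM CaCl2 was preincubated with compound 30 min at 25 °C in MOPS buffer pH 7.6, then reacted with 3 mM BAEE for 2 h at 25 °C. After EDTA stop, released ammonia was detected by o-phthalaldehyde/DTT fluorescence (ex 405/em 535 nm); IC50 from four-parameter fit, geometric mean.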

T1 sequence (Q9UM07 2-663): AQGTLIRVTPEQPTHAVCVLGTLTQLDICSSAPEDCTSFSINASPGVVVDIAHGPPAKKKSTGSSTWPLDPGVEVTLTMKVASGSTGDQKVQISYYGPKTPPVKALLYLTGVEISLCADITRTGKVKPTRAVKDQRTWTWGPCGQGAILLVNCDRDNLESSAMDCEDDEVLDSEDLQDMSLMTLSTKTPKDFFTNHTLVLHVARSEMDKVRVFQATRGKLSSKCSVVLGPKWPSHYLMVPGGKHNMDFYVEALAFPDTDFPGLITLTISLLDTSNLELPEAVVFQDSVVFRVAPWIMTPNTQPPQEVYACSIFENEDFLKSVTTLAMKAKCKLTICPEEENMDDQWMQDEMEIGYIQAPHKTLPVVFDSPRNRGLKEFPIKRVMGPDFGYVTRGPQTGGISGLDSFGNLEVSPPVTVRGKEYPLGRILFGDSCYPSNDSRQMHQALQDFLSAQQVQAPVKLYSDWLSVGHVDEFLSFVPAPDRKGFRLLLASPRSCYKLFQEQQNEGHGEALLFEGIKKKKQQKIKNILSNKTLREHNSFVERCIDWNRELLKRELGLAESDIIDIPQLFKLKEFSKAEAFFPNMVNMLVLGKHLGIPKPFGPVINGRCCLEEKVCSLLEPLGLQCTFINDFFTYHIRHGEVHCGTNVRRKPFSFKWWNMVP

Row | Compound | IC50
1 | C[C@H]1NC(=O)[C@@H]2C[C@H]2CCCC(F)(F)Cn2c(-c3nc4cc(C(=O)N5C[C@H](N)[C@@H]6CC[C@H]5C6)cc(F)c4n3[C@@H]3C[C@@H]3F)cc3ccc1nc32 [Example 467, (2~{R},5~{R},7~{R})-14-[(1~{R})-5-[(1~{S},4~{R},5~{R})-4-amino-2-azabicyclo[3.2.1]octane-2-carbonyl]-7-fluoro-1-[(2~{S})-2-fluorocyclopropyl]benzimidazol-2-yl]-11,11-difluoro-2-methyl-3,13,19-triazatetracyclo[11.5.2.0^{5,7}.0^{16,20}] icosa-1(19),14,16(20),17-tetraen-4-one] | 27 nM
2 | C[C@H]1NC(=O)[C@@H]2C[C@H]2CCCC(F)(F)Cn2c(-c3nc4cc(C(=O)N5C[C@H](N)[C@@H]6CC[C@H]5C6)cc(F)c4n3[C@H]3C[C@H]3F)cc3ccc1nc32 [Example 468, (2~{R},5~{R},7~{R})-14-[5-[(1~{S},4~{R},5~{R})-4-amino-2-azabicyclo[3.2.1]octane-2-carbonyl]-7-fluoro-1-[(1~{S},2~{R})-2-fluorocyclopropyl]benzimidazol-2-yl]-11,11-difluoro-2-methyl-3,13,19-triazatetracyclo[11.5.2.0^{5,7}.0^{16,20}] icosa-1(19),14,16(20),17-tetraen-4-one] | 28 nM
3 | C[C@H]1NC(=O)c2ccc(Cl)nc2CCCCCn2c(-c3nc4cc(C(=O)N5C[C@H](N)[C@@H]6CC[C@H]5C6)cc(F)c4n3C)cc3ccc1nc32 [Example 469, (2~{R})-17-[5-[(1~{S),4~{R},5~{R})-4-amino-2-azabicyclo[3.2.1]octane-2-carbonyl]-7-fluoro-1-methyl-benzimidazol-2-yl]-8-chloro-2-methyl-3,9,16,22-tetrazatetracyclo[14.5.2.0^{5,10).0^ {19,23)]tricosa-1(21),5(10),6,8,17,19,22-heptaen-4-one] | 21 nM
4 | CO[C@H]1C[C@@H]1n1c(-c2cc3ccc4nc3n2CC(F)(F)CCC[C@@H]2C[C@H]2C(=O)N[C@@H]4C)nc2cc(C(=O)N3C[C@H](N)[C@@H]4CC[C@H]3C4)cc(F)c21 [Example 470, (2~{R},5~{R},7~{R})-14-[5-[(1~{S},4~{R},5~{R})-4-amino-2-azabicyclo[3.2.1]octane-2-carbonyl]-7-fluoro-1-[(1~{S},2~{S})-2-methoxycyclopropyl]benzimidazol-2-yl]-11,11-difluoro-2-methyl-3,13,19-triazatetracyclo[11.5.2.0^{5,7}.0^{16,20}] icosa-1(18),14,16,19-tetraen-4-one] | 43 nM
5 | C[C@H]1NC(=O)[C@@H]2C[C@H]2CCCC(F)(F)Cn2c(-c3nc4cc(C(=O)N5C[C@H](N)[C@@H]6CC[C@H]5C6)cc(Cl)c4n3C3CC3)cc3ccc1nc32 [Example 471, (2~{R},5~{R},7~{R})-14-[5-[(1~{S),4~{R},5~{R})-4-amino-2-azabicyclo[3.2.1]octane-2-carbonyl]-7-chloro-1-cyclopropyl-benzimidazol-2-yl]-11,11-difluoro-2-methyl-3,13,19-triazatetracyclo[11.5.2.0^{5,7}.0^{16,20}] icosa-1(18),14,16,19-tetraen-4-one] | 44 nM
6 | C[C@H]1NC(=O)c2ccc(Cl)nc2CCCCCn2c(-c3nc4cc(C(=O)N5C[C@H](N)[C@@H]6CC[C@H]5C6)cc(F)c4n3C3CC3)cc3ccc1nc32 [Example 472, (2˜{R})-17-[5-[(1˜{S},4˜{R},5˜{R})-4-amino-2-azabicyclo[3.2.1]octane-2-carbonyl]-1-cyclopropyl-7-fluoro-benzimidazol-2-yl]-8-chloro-2-methyl-3,9,16,22-tetrazatetracyclo[14.5.2.0^{5,10}.0^{19,23}]tricosa-1(21),5(10),6,8,17,19,22-heptaen-4-one] | 42 nM

Reference: patent publication US11976083B2, “Inhibitors of peptidylarginine deiminases” (Gilead Sciences, Inc., priority 2020, dated 2024)
